In ChEMBL document CHEMBL3608217, “Discovery of novel bridged tetrahydronaphthalene derivatives as potent T/L-type calcium channel blockers” (Bioorg Med Chem Lett, 2015):
≈ marks a conversion by molar mass, not a printed value. Blank lines part the entries; values can stand above or below the compound they belong to.

What was measured:
Heart = assay: Increase in coronary flow in Wistar rat Langendorff isolated perfused heart; format: functional, tissue-based
[1] = target: Voltage-dependent T-type calcium channel subunit alpha-1H (Homo sapiens, UniProt O95180); assay: Inhibition of recombinant Cav3.2 channel (unknown origin) expressed in HEK293 cells assessed as effect on calcium flux incubated for 3 mins by FLIPR assay; format: cell-based
[2] = target: Voltage-dependent L-type calcium channel subunit alpha-1C (Homo sapiens, UniProt Q13936); assay: Inhibition of recombinant Cav1.2 channel (unknown origin) expressed in HEK293 cells assessed as effect on calcium flux incubated for 3 mins by FLIPR assay; format: cell-based
Cytochrome P450 2D6 = Cytochrome P450 2D6 (Homo sapiens, UniProt P10635); assay: Inhibition of CYP2D6 in human liver microsomes assessed as reduction in dextromethorphan-O demethylation by LC-MS/MS method; format: ADME
[3] = AUC in Wistar rat at 10 mg/kg, po; format: ADME, organism-based; conditions: in vivo
[4] = Volume of distribution at steady state in Wistar rat at 10 mg/kg, po or 1 mg/kg, iv; format: ADME, organism-based; conditions: in vivo, read-out: Vdss
[5] = Protein binding in human plasma; format: ADME, cell-free; conditions: read-out: PPB
[6] = target: Voltage-gated inwardly rectifying potassium channel KCNH2 (Homo sapiens, UniProt Q12809); assay: Inhibition of human ERG expressed in HEK cells by patch clamp assay
[7] = Solubility in pH 7.0 buffer; format: physicochemical
Rattus norvegicus [8] = assay: Antihypertensive activity in freely moving conscious spontaneously hypertensive rat at assessed as time duration for reduction in mean arterial pressure at 10 mg/kg, po administered as single dose in morning at end of wake phase by telemetry; format: functional, Artery
Cytochrome P450 2C9 = Cytochrome P450 2C9 (Homo sapiens, UniProt P11712); assay: Inhibition of CYP2C9 in human liver microsomes assessed as reduction in diclofenac 4'-hydroxylation by LC-MS/MS method; format: ADME
[9] = Solubility in 0.1M HCl; format: physicochemical
[10] = Half life in Wistar rat at 10 mg/kg, po or 1 mg/kg, iv; format: ADME, organism-based; conditions: in vivo
Rattus norvegicus [11] = assay: Antihypertensive activity in freely moving conscious spontaneously hypertensive rat at assessed as reduction in mean arterial pressure at 10 mg/kg, po administered as single dose in morning at end of wake phase measured after 6 hrs by telemetry; format: functional, Artery
Cytochrome P450 3A4 [12] = target: T1, Cytochrome P450 3A4 (Homo sapiens, UniProt P08684); assay: Time dependent inhibition of CYP3A4 in human liver microsomes assessed as reduction in testosterone 6beta-hydroxylation incubated for 60 mins in presence of NADPH generating system by LC-MS/MS method; format: ADME
[13] = Protein binding in rat plasma; format: ADME, cell-free; conditions: read-out: PPB (converted)
Cytochrome P450 3A4 [14] = target: T1, Cytochrome P450 3A4; assay: Inhibition of CYP3A4 in human liver microsomes assessed as reduction in testosterone 6beta-hydroxylation by LC-MS/MS method; format: ADME
[15] = Solubility in Water at pH 4; format: physicochemical
[16] = Oral bioavailability in Wistar rat at 10 mg/kg; format: ADME, organism-based; conditions: in vivo
[17] = Clearance in Wistar rat at 10 mg/kg, po or 1 mg/kg, iv; format: ADME, organism-based; conditions: in vivo
Cytochrome P450 3A4 [18] = target: T1, Cytochrome P450 3A4; assay: Inhibition of CYP3A4 in human liver microsomes assessed as reduction in midazolam 1'-hydroxylation by LC-MS/MS method; format: ADME
[19] = Distribution coefficient, log D of the compound at pH 7.4; format: physicochemical; conditions: octanol/water
Rattus norvegicus [20] = assay: Antihypertensive activity in freely moving conscious spontaneously hypertensive rat at assessed as area between curve for reduction in mean arterial pressure at 10 mg/kg, po administered as single dose in morning at end of wake phase by telemetry; format: functional, Artery
[21] = Cmax in Wistar rat at 10 mg/kg, po; format: ADME, organism-based; design: dose 10 mg/kg, route oral; conditions: in vivo
[22] = Rattus norvegicus, Wistar, Heart

Voltage-dependent T-type calcium channel subunit alpha-1H, sequence (O95180 whole entry): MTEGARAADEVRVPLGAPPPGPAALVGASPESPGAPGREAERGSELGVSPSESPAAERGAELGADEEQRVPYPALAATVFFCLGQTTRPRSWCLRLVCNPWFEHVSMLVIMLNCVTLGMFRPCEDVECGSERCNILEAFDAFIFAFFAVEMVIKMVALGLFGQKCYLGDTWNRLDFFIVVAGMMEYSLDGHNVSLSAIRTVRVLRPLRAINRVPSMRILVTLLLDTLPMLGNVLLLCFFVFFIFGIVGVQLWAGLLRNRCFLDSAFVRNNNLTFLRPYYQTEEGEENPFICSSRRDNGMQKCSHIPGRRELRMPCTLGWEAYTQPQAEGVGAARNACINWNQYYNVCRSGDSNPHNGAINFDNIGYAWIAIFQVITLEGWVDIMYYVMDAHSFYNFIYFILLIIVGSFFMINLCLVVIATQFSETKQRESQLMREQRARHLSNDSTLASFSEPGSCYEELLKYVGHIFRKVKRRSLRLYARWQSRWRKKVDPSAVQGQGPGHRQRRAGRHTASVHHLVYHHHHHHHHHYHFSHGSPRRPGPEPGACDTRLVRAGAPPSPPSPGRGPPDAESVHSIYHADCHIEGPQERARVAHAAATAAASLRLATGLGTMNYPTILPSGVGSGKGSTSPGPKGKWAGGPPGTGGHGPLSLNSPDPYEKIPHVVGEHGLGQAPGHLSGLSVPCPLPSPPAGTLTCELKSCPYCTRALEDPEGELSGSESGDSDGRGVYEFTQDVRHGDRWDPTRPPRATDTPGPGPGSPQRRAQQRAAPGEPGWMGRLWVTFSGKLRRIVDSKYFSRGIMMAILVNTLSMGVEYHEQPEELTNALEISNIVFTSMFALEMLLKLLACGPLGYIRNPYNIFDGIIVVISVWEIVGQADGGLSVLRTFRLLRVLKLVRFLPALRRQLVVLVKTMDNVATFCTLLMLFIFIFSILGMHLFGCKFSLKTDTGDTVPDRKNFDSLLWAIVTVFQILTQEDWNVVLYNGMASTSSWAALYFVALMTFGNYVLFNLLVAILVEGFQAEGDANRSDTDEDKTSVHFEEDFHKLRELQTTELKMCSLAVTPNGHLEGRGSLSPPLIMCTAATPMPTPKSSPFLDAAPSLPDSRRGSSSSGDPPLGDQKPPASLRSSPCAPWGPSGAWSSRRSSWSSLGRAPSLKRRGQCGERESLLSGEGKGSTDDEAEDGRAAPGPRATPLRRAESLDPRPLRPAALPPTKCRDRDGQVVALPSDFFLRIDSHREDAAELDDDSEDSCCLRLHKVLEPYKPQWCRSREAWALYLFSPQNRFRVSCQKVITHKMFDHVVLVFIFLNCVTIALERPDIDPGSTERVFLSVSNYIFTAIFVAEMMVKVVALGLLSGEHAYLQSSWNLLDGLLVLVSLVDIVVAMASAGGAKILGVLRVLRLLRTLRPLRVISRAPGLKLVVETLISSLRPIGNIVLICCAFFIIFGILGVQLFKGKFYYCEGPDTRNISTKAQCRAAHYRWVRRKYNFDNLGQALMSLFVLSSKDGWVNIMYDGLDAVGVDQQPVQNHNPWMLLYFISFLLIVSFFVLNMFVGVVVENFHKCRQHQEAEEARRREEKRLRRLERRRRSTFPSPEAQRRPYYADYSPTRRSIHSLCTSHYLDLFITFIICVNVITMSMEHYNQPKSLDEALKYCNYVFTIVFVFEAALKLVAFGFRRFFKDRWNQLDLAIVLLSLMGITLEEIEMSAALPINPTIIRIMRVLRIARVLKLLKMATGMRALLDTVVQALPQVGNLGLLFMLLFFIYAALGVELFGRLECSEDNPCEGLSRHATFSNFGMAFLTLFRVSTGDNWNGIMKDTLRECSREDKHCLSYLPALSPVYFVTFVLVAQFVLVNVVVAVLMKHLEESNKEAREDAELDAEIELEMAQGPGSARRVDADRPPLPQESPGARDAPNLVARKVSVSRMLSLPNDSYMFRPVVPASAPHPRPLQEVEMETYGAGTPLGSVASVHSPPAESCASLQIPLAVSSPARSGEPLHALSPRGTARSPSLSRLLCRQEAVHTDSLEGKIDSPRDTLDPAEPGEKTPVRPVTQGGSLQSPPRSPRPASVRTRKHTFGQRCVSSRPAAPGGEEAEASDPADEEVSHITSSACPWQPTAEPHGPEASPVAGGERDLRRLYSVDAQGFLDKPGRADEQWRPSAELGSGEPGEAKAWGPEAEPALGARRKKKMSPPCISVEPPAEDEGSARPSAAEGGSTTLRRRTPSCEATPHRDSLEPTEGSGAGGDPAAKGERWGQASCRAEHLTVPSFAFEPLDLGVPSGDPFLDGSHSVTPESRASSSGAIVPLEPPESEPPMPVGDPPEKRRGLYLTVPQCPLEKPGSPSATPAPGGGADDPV
Voltage-dependent L-type calcium channel subunit alpha-1C, sequence (Q13936 whole entry): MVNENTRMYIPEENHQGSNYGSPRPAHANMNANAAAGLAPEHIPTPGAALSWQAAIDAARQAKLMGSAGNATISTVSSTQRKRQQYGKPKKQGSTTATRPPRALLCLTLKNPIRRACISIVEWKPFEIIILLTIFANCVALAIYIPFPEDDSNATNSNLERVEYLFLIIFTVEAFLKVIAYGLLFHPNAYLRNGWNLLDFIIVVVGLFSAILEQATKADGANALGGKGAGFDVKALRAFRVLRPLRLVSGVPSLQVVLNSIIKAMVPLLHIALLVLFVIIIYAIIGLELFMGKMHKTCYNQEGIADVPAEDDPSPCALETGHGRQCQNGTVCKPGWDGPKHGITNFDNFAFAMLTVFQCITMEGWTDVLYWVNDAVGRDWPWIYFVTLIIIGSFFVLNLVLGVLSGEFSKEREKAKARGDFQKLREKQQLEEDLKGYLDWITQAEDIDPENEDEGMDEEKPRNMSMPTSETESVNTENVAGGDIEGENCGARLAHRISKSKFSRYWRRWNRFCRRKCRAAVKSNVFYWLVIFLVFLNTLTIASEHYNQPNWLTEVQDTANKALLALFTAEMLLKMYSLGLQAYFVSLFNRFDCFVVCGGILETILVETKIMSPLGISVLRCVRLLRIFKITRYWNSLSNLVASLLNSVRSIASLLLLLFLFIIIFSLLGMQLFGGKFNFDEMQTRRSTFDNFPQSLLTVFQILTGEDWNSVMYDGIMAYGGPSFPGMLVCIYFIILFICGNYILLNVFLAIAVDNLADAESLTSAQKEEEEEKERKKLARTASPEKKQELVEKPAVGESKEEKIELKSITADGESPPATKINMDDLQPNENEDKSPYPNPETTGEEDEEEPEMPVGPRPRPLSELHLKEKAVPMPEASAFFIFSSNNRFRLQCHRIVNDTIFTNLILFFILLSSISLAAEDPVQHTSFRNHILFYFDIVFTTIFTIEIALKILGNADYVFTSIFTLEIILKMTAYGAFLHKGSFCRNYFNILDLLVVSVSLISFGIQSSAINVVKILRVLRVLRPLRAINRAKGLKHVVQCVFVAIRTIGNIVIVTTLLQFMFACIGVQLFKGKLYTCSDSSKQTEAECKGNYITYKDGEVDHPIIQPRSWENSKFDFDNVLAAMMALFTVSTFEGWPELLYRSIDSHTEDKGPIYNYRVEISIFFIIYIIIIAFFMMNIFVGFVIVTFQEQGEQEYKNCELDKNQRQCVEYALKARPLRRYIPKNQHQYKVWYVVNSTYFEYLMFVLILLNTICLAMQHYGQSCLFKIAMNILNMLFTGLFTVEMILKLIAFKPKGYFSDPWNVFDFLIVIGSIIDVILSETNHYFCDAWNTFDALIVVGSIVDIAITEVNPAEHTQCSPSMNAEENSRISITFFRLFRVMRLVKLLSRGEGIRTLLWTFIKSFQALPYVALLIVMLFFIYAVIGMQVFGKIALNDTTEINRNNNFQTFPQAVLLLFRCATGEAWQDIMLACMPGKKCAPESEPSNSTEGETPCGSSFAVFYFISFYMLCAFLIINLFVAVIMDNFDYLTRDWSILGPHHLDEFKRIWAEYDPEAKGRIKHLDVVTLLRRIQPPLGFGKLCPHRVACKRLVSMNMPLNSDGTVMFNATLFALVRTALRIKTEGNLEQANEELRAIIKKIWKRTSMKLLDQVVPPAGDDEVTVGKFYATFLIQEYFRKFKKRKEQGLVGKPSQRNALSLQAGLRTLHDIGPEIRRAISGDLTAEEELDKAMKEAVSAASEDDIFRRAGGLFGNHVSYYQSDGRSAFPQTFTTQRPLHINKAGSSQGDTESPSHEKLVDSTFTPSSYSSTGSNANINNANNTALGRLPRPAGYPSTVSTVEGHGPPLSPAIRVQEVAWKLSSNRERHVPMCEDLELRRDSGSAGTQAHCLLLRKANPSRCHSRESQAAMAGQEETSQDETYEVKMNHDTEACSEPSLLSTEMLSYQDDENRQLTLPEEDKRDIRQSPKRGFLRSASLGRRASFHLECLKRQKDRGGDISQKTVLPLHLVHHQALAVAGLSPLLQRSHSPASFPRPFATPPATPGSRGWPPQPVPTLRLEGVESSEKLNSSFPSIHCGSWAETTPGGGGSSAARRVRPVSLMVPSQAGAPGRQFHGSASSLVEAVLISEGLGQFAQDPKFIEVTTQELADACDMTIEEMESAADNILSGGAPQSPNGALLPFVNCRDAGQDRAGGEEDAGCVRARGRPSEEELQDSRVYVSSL
T1 sequence (P08684 whole entry): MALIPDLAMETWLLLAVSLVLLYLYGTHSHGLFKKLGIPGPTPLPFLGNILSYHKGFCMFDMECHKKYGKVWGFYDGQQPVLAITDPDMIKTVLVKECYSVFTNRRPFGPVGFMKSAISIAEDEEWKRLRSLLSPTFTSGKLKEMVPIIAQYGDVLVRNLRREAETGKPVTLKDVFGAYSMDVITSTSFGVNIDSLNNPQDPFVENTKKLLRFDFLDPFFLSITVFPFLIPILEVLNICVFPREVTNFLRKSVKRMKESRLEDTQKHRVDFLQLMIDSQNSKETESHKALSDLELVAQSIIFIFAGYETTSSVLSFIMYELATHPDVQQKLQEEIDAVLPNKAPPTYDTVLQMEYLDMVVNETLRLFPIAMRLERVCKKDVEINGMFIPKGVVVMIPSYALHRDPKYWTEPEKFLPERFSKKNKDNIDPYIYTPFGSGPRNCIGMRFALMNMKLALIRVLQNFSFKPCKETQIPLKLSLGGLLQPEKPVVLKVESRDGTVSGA

EC50 (Heart; [22]): 16 nM
IC50 [1]: 113 nM
Structure (SMILES): CC(C)C(=O)O[C@]1(CCN(C)CCCc2nc3ccccc3[nH]2)C[C@H](OCc2ccccc2)c2cc(F)ccc2[C@@H]1C(C)C
IC50 [2]: 225 nM

EC50 (Heart; [22]): 40 nM
IC50 [1]: 318 nM
Structure (SMILES): CO[C@H]1C[C@@](CCN(C)CCCc2nc3ccccc3[nH]2)(OC(=O)C(C)C)[C@@H](C(C)C)c2ccc(F)cc21
IC50 [2]: 403 nM

EC50 (Heart; [22]): 20 nM
IC50 [1]: 132 nM
Structure (SMILES): CC(C)C(=O)O[C@]1(CCN(C)CCCc2nc3ccccc3[nH]2)C[C@@H](OCc2ccccc2)c2cc(F)ccc2[C@@H]1C(C)C
IC50 [2]: 156 nM

EC50 (Heart; [22]): 134 nM
IC50 [1]: 107 nM
Structure (SMILES): CC(C)C(=O)O[C@]1(CCN(C)CCCc2nc3ccccc3[nH]2)C[C@@H](O)c2cc(F)ccc2[C@@H]1C(C)C
IC50 [2]: 504 nM

EC50 (Heart; [22]): 38 nM
IC50 [1]: 76 nM
Structure (SMILES): CC(C)C(=O)O[C@]1(CCN(C)CCCc2nc3ccccc3[nH]2)C[C@H](O)c2cc(F)ccc2[C@@H]1C(C)C
IC50 [2]: 426 nM

EC50 (Heart): > 150 nM
IC50 [1]: 350 nM
Structure (SMILES): CC(C)C(=O)O[C@]1(CCN(C)CCCc2nc3ccccc3[nH]2)C[C@@H]2CC[C@H]1c1ccccc12
IC50 [2]: 699 nM

EC50 (Heart; [22]): 26 nM
IC50 [1]: 225 nM
Structure (SMILES): CC(C)C(=O)O[C@]1(CCN(C)CCCc2nc3ccccc3[nH]2)C[C@@H]2CCC[C@H]1c1ccccc12
IC50 [2]: 648 nM

EC50 (Heart; [22]): 26 nM
IC50 [1]: 398 nM
Structure (SMILES): CC(C)C(=O)O[C@@]1(CCN(C)CCCc2nc3ccccc3[nH]2)C[C@H]2CC[C@@H]1c1ccccc12
IC50 [2]: 424 nM

EC50 (Heart; [22]): 22 nM
IC50 [1]: 184 nM
Structure (SMILES): CC(C)C(=O)O[C@@]1(CCN(C)CCCc2nc3ccccc3[nH]2)C[C@H]2CCC[C@@H]1c1ccccc12
IC50 [2]: 455 nM

IC50 (Cytochrome P450 2D6): 1400 nM
AUC [3]: 198 ng·h/mL
Vd [4]: 7.1 L/kg
fraction unbound [5]: < 0.001
solubility [7]: 119 µg/mL (≈ 236 µM)
IC50 (Cytochrome P450 2C9): 32000 nM
solubility [9]: 681 µg/mL (≈ 1350 µM)
half-life [10]: 2.2 h
IC50 (Cytochrome P450 3A4 [12]): 34000 nM
fraction unbound [13]: 0.002
EC50 (Heart; [22]): 7 nM
IC50 (Cytochrome P450 3A4 [14]): 5500 nM
IC50 [1]: 84 nM
solubility [15]: 734 µg/mL (≈ 1460 µM)
bioavailability [16]: 7%
clearance [17]: 58 mL/min/kg
IC50 (Cytochrome P450 3A4 [18]): 3000 nM
logD [19]: 2.7
Cmax [21]: 64 ng/mL
Structure (SMILES): COc1cccc2nc(CCCN(C)CC[C@]3(OC(=O)C(C)C)C[C@H]4CCC[C@@H]3c3ccccc34)[nH]c12
IC50 [6]: < 400 nM
Time (Rattus norvegicus [8]): 24 h
Activity (Rattus norvegicus [11]): 35 mmHg
IC50 [2]: 387 nM
ABC (Rattus norvegicus [20]): 377 mmHg.hr

EC50 (Heart; [22]): 20 nM
IC50 [1]: 149 nM
Structure (SMILES): CC(C)C(=O)O[C@]1(CCN(C)CCCc2nc3ccccc3[nH]2)CCc2cc(F)ccc2[C@@H]1C(C)C
IC50 [2]: 347 nM

IC50 [1]: 207 nM
Structure (SMILES): COCC(=O)O[C@]1(CCN(C)CCCc2nc3ccccc3[nH]2)CC(C)(C)c2cc(F)ccc2[C@@H]1C(C)C
IC50 [2]: 434 nM

EC50 (Heart; [22]): 23 nM
IC50 [1]: 193 nM
Structure (SMILES): CCCC[C@@H]1C[C@@](CCN(C)CCCc2nc3ccccc3[nH]2)(OC(=O)COC)[C@@H](C(C)C)c2ccc(F)cc21
IC50 [2]: 173 nM

EC50 (Heart; [22]): 29 nM
IC50 [1]: 557 nM
Structure (SMILES): CO[C@@H]1C[C@@](CCN(C)CCCc2nc3ccccc3[nH]2)(OC(=O)C(C)C)[C@@H](C(C)C)c2ccc(F)cc21
IC50 [2]: 588 nM

EC50 (Heart; [22]): 250 nM
IC50 [1]: 361 nM
Structure (SMILES): COCC(=O)O[C@]1(CCN(C)CCCc2nc3ccccc3[nH]2)C[C@@H]2CC[C@H]1c1ccccc12 (racemic)
IC50 [2]: 748 nM

EC50 (Heart): 42 nM
IC50 [1]: 432 nM
Structure (SMILES): CC(C)C(=O)O[C@]1(CCN(C)CCCc2nc3ccccc3[nH]2)C[C@@H]2CC[C@H]1c1ccccc12 (racemic)
IC50 [2]: 533 nM

EC50 (Heart; [22]): 77 nM
IC50 [1]: 210 nM
Structure (SMILES): CN(CCCc1nc2ccccc2[nH]1)CC[C@@]1(OC(=O)C2CC2)C[C@@H]2CC[C@H]1c1ccccc12 (racemic)
IC50 [2]: 140 nM

EC50 (Heart): 39 nM
IC50 [1]: 217 nM
Structure (SMILES): CC(C)C(=O)O[C@]1(CCN(C)CCCc2nc3ccccc3[nH]2)C[C@@H]2CCC[C@H]1c1ccccc12 (racemic)
IC50 [2]: 437 nM

EC50 (Heart; [22]): > 300 nM
IC50 [1]: 224 nM
Structure (SMILES): CO[C@]1(CCN(C)CCCc2nc3ccccc3[nH]2)C[C@@H]2CC[C@H]1c1ccccc12 (racemic)
IC50 [2]: 2670 nM

EC50 (Heart; [22]): > 1000 nM
IC50 [1]: 2070 nM
Structure (SMILES): CC(C)C(=O)O[C@]1(CCN(C)CCCc2nc3ccccc3[nH]2)C[C@@H]2CC[C@H]1c1nccnc12 (racemic)
IC50 [2]: > 4600 nM

EC50 (Heart; [22]): 26 nM
Structure (SMILES): COCC(=O)O[C@]1(CCN(C)CCCc2nc3ccccc3[nH]2)CCc2cc(F)ccc2[C@@H]1C(C)C [MIBEFRADIL]
Activity (Rattus norvegicus [11]): 32 mmHg
ABC (Rattus norvegicus [20]): 437 mmHg.hr
